According to article PMC9878342, “Gossypol acetate: A natural polyphenol derivative with antimicrobial activities against the essential cell division protein FtsZ” (Frontiers in Microbiology, 2023):

Target: T1, FtsZ (SaFtsZ) (Staphylococcus aureus, UniProt P0A031)
T1 construct: 6× His-FtsZ (N-terminal 6× His tag)
T1 sequence (P0A031 1-390): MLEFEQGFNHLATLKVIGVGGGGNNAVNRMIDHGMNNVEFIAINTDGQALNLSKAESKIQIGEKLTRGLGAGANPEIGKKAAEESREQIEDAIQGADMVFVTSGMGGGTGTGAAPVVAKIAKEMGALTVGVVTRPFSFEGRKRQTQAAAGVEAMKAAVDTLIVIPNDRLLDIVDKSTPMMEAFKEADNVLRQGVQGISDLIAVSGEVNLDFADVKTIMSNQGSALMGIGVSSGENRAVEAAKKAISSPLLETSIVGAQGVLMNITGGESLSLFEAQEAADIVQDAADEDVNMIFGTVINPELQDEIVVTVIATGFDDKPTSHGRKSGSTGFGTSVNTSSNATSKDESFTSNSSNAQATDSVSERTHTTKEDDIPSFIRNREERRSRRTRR
Experiment: isothermal titration calorimetry; also GTPase inhibition and […]° light scattering
Format: binding

In the case of `Cc1cc2c(C(C)C)c(O)c(O)c(C=O)c2c(O)c1-c1c(C)cc2c(C(C)C)c(O)c(O)c(C=O)c2c1O` [S2303, Gossypol acetate], the Kd is reported as 3.6 ± 0.7 µM.
